# Reference: patent publication US6723332B2 (dated 2004)
row,melting point,SMILES
1,280 to 285 °C (dec.),Cc1ccc(F)c(NC(=O)C2C=Nc3cccc(=O)n32)c1 (stereo not drawn)
2,274 to 277 °C (dec.),O=C(Nc1cccc(C(F)(F)F)c1F)C1C=Nc2cccc(=O)n21 (stereo not drawn)
3,198 to 210 °C,CN(C)CCOc1ccc(NC(=O)C2C=Nc3cccc(=O)n32)cc1 (stereo not drawn)
4,273 to 275 °C,O=C(Nc1ccc(OC(F)(F)F)cc1)C1C=Nc2cccc(=O)n21 (stereo not drawn)
5,> 285 °C (dec.),Cc1cc(=O)n2c(C(=O)Nc3cc(F)ccc3F)c[nH]c2c1
6,> 216 °C (dec.),CCOc1ccc(NC(=O)C2C=Nc3cccc(=O)n32)c(F)c1 (stereo not drawn)
